{"source": "patent US9426996B2", "about": "“Use of benzoxaboroles as volatile antimicrobial agents on meats, plants, or plant parts” (AgroFresh Inc., priority 2013, dated 2016)", "key": {"Botrytis cinerea [1]": {"system": "Botrytis cinerea", "test": "in vitro inhibition assay for volatile antimicrobial compounds (12-well PDA plates)", "assay_type": "cell-based", "conditions": "in vitro; volatile; 14 days at 4° C.", "method": "12-Well (7 milliliter (mL volume per well) microtiter plates are used for the in vitro inhibition assay for volatile antimicrobial compounds. A 3-mL volume of full-strength Potato Dextrose Agar (PDA) is added to each well. After cooling, 1 microliter (μL) of 1×10^6 per mL Botrytis cinerea spore suspension is spot pipetted to the center of the agar. For the first experiment, inoculated plates are allowed to germinate for 5 days at 4° C. For the second experiment, plates are inoculated immediately prior to volatile fungicide treatment. Small Whatman #1 filter disks (Cat. No. 1001-0155) are placed, in duplicate, on the underside of a polyethylene PCR plate sealing film.\nThe acetone is permitted to evaporate for 5 minutes. The headspace around the Botrytis cinerea inoculum is then sealed inside the well by the film with the adhering disk containing the fungicide. Plates are inverted, placed over the treated disks and sealed to prevent any of the chemical from flaking from the disk and falling onto the inoculated agar. After 14 days of storage at 4° C., cultures are evaluated for percent growth relative to control. Regardless of whether the spores had germinated for 5 days, or if the treatment commenced soon after inoculation of the plates (˜15 minutes); there is 100% control of the fungal pathogen down to 0.005 mg.\nA total of 14 antimicrobial compounds are tested using the in vitro inhibition assay described in Example 1. All 14 compounds are applied to the Whatman disks, in duplicate, in a dose dependent manner (0.31 to 0.0006 mg/disk). […] Other compounds, such as Compound C, Compound D, and Compound E conferred 100% control down to 0.023, 0.04, and 0.08 mg/disk, respectively. Results of nine compounds are summarized in Table 2, where the other five compounds show no detected activity in the ranges tested. […]"}, "[2]": {"system": "Pectobacterium carotovorum", "test": "in vivo volatile assay on potato, onion and carrot cubes", "conditions": "50 mg/L; for Log CFU/mL: 10 C for four days", "method": "To test the effect of Compound A at controlling bacterial pathogens of vegetables, potato, onion and carrot are chopped into small cubes and surface sterilized with 0.825% NaOCl and allowed to dry. Four small cubes (approximately […]) of each vegetable are placed in a sterile Petri plate. Each cube is inoculated with 25 μL of Pectobacterium carotovorum (bacterial concentration of OD 1.0, 600 nm). […] No. 1001-042) attached to the inner side of the lid. The acetone is permitted to evaporate for five minutes before closing the plate and sealing it with parafilm. The vegetables are incubated at 10 C for four days."}, "Botrytis cinerea [3]": {"system": "Botrytis cinerea", "test": "in vivo strawberry assay, release from cellulose paper and Tyvek fabric", "conditions": "strawberries", "method": "An in vivo assay is used to evaluate the ability of Compound A to volatilize from different materials and control fungal pathogens. Eight strawberries are placed in a clamshell with stem end facing downwards. […] The clamshells are then placed in a 10.8-cup SnapWare airtight container (Model #109842). Compound A is dissolved in acetone and then evenly sprayed onto cellulose paper and Tyvek® fabric at a rate of 200 milligrams per square meter (mg/m^2). The acetone is allowed to evaporate. Likewise Compound A is dissolved in propylene glycol and evenly sprayed onto cellulose paper and Tyvek® fabric. No evaporation is attempted in this case.\nPieces of material are cut to the appropriate dimensions to deliver a final headspace concentration of 0.4, 2, or 10 mg/L. The containers are close, and placed for three days at 21° C. After treatment, fruit are stored for an additional two days at 21° C. and then evaluated for incidence (%) and severity (0 to 4) of disease, with the results summarized in Table 23."}, "Penicillium digitatum": {"system": "Penicillium digitatum", "test": "in vivo contact drench assay on oranges", "method": "In order to assess the activity of Compound A (FIG. 1) as a contact drench fungicide, an in vivo assay is developed. […] Compound A is dissolved in water to achieve a final treatment solution concentration of 250, 50, or 10 mg/L. The fruit is dipped in Compound A solution for 1 minute and allowed to dry for 1 hour. Fruit wounds are then inoculated with 30 μL of 1×10^6 per mL Penicillium expansum spore suspension (apple) or Penicillium digitatum spore suspension (orange). Clamshells are then placed in a 10.8-cup SnapWare airtight container (Model #109842) and incubated for 3 days at 21° C."}, "Botrytis cinerea [4]": {"system": "Botrytis cinerea", "test": "white roses with natural inoculum, volatile treatment", "assay_type": "in vivo", "design": "key to Severity (0-4): 0 = No disease; 1 = Browning and small lesions on the sepals or petals; 2 = Browning, petals covered with fungal spores; 3 = Browning, petals covered with fungal spores, some petal drop; 4 = Browning, petals covered with fungal spores, some flowers aborted", "method": "A similar test like the one described above is also performed on white roses with natural inoculum. Five white roses are placed in an 800 mL jar containing 200 mL of a common commercial flower preservative.\nThree jars are then placed in a 117 L Rubbermaid storage box (Cat #2244). Two small fans are place in opposite ends of the container to assist with the volatile distribution of compound A. The tub is closed tightly, and then Compound A is diluted in acetone, and then pipetted onto a 1.5 inch×1 inch cotton strip. The acetone is allowed to evaporate for five minutes. Compound A is then introduced to the containers by a sublimation device (copper tube heated to 200° C. with fan flow at 0.5 L/min) to achieve a final headspace concentration of 0.04, 0.2, 1 mg/L, through a ½″ side port that is sealed immediately after the application. Alternatively, Compound A is pipetted onto a 42.5 mm Whatman #1 filter disk (Cat. No. 1001-042), supported by a watch glass, where the acetone is allowed to evaporate for five minutes prior to sealing the container. The flowers are incubated for three days at 21° C. After treatment, flowers are evaluated for an additional two days for disease incidence and severity of the flower petals. Applying a treatment at 1 mg/L through sublimation results in 0% incidence. Rose petals after treatment with Compound A have no disease incidence, retained white color, and the roses had no petal drop."}, "[5]": {"conditions": "0.04 mg/L, Applied through sublimation"}, "[6]": {"conditions": "0.04 mg/L, Volatilized from Whatman Filter"}, "[7]": {"conditions": "0.2 mg/L, Applied through sublimation"}, "[8]": {"conditions": "0.2 mg/L, Volatilized from Whatman Filter"}, "[9]": {"conditions": "1 mg/L, Applied through sublimation"}, "[10]": {"conditions": "1 mg/L, Volatilized from Whatman Filter"}}}
{"smiles": "OB1OCc2cc(F)ccc21", "note": "[Compound A]", "values": [{"measurement": "lowest rate with 100% control of Botrytis cinerea", "setting": "Botrytis cinerea [1]", "value": 0.005, "unit": "mg/disk"}, {"measurement": "Log reduction", "setting": "[2]; Carrot", "value": 0.29, "unit": "log"}, {"measurement": "Log CFU/mL", "setting": "[2]; Carrot", "value": 6.06, "unit": "Log CFU/mL"}, {"measurement": "Log reduction", "setting": "[2]; Onion", "value": 2.14, "unit": "log"}, {"measurement": "Log CFU/mL", "setting": "[2]; Onion", "value": 5.99, "unit": "Log CFU/mL"}, {"measurement": "Log reduction", "setting": "[2]; Potato", "value": 0.84, "unit": "log"}, {"measurement": "Log CFU/mL", "setting": "[2]; Potato", "value": 6.63, "unit": "Log CFU/mL"}, {"measurement": "Incidence (%)", "setting": "Botrytis cinerea [3]; 0.4 mg/L, Cellulose Paper", "value": 37.5, "unit": "%"}, {"measurement": "Severity (0-4)", "setting": "Botrytis cinerea [3]; 0.4 mg/L, Cellulose Paper", "value": 0.8}, {"measurement": "Incidence (%)", "setting": "Botrytis cinerea [3]; 0.4 mg/L, Tyvek", "value": 31.3, "unit": "%"}, {"measurement": "Severity (0-4)", "setting": "Botrytis cinerea [3]; 0.4 mg/L, Tyvek", "value": 0.5}, {"measurement": "Incidence (%)", "setting": "Botrytis cinerea [3]; 2 mg/L, Cellulose Paper", "value": 37.5, "unit": "%"}, {"measurement": "Severity (0-4)", "setting": "Botrytis cinerea [3]; 2 mg/L, Cellulose Paper", "value": 0.7}, {"measurement": "Incidence (%)", "setting": "Botrytis cinerea [3]; 2 mg/L, Tyvek", "value": 6.3, "unit": "%"}, {"measurement": "Severity (0-4)", "setting": "Botrytis cinerea [3]; 2 mg/L, Tyvek", "value": 0.1}, {"measurement": "Severity (0-4)", "setting": "Botrytis cinerea [3]; 10 mg/L, Cellulose Paper", "value": 0.2}, {"measurement": "Incidence (%)", "setting": "Botrytis cinerea [3]; 10 mg/L, Tyvek", "value": 6.3, "unit": "%"}, {"measurement": "Severity (0-4)", "setting": "Botrytis cinerea [3]; 10 mg/L, Tyvek", "value": 0.3}, {"measurement": "Sporulation (mm)", "setting": "Penicillium digitatum; dip 10 mg/L", "value": 16.6, "unit": "mm"}, {"measurement": "Water soaked (mm)", "setting": "Penicillium digitatum; dip 10 mg/L", "value": 27.5, "unit": "mm"}, {"measurement": "Sporulation (mm)", "setting": "Penicillium digitatum; dip 50 mg/L", "value": 12.0, "unit": "mm"}, {"measurement": "Water soaked (mm)", "setting": "Penicillium digitatum; dip 50 mg/L", "value": 18.8, "unit": "mm"}, {"measurement": "Sporulation (mm)", "setting": "Penicillium digitatum; dip 250 mg/L", "value": 0.4, "unit": "mm"}, {"measurement": "Water soaked (mm)", "setting": "Penicillium digitatum; dip 250 mg/L", "value": 1.7, "unit": "mm"}, {"measurement": "Incidence (%)", "setting": "Botrytis cinerea [4]; [5]", "value": 46.7, "unit": "%"}, {"measurement": "Severity (0-4)", "setting": "Botrytis cinerea [4]; [5]", "value": 1.7}, {"measurement": "Incidence (%)", "setting": "Botrytis cinerea [4]; [6]", "value": 46.7, "unit": "%"}, {"measurement": "Severity (0-4)", "setting": "Botrytis cinerea [4]; [6]", "value": 1.1}, {"measurement": "Incidence (%)", "setting": "Botrytis cinerea [4]; [7]", "value": 13.3, "unit": "%"}, {"measurement": "Severity (0-4)", "setting": "Botrytis cinerea [4]; [7]", "value": 0.5}, {"measurement": "Incidence (%)", "setting": "Botrytis cinerea [4]; [8]", "value": 66.7, "unit": "%"}, {"measurement": "Severity (0-4)", "setting": "Botrytis cinerea [4]; [8]", "value": 1.8}, {"measurement": "Incidence (%)", "setting": "Botrytis cinerea [4]; [9]", "value": 0, "unit": "%"}, {"measurement": "Severity (0-4)", "setting": "Botrytis cinerea [4]; [9]", "value": 0}, {"measurement": "Incidence (%)", "setting": "Botrytis cinerea [4]; [10]", "value": 53.3, "unit": "%"}, {"measurement": "Severity (0-4)", "setting": "Botrytis cinerea [4]; [10]", "value": 1.6}]}
